Source: PubChem BioAssay (NCI)
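These data come from cells grown in 96-well plates and exposed to compound for 48 hours at five concentrations. TGI denotes the concentration required for complete inhibition of growth.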

Experiments:
Assay in all cases: growth of human tumour cells (NCI), 48 h
[1] = tested on: A498 renal
[2] = tested on: SN12C renal
[3] = tested on: TK-10 renal
[4] = tested on: SR leukemia
[5] = tested on: HL-60(TB) leukemia
[6] = tested on: SK-MEL-28 melanoma
[7] = tested on: T-47D breast
[8] = tested on: MALME-3M melanoma
[9] = tested on: SF-295 CNS
[10] = tested on: MDA-MB-435
[11] = tested on: MCF7 breast
[12] = tested on: HCT-15 colon
[13] = tested on: MDA-MB-231 breast
[14] = tested on: EKVX NSCLC
[15] = tested on: KM12 colon
[16] = tested on: SNB-75 CNS
[17] = tested on: HCC-2998 colon

Measured: TGI

CCOC(=O)C1=C(C)NC(=O)N([N+](=O)[O-])C1c1ccccc1C(F)(F)F (stereo not given)
not listed: [14] | [15] | [16] | [17]
> 100 µM: all other assays above

CCc1cc(=O)n(/C(C)=C/c2ccccc2)n1C
not listed: [1] | [4] | [5] | [8] | [12]
> 100 µM: all other assays above
